PMC6900016, “Synthesis of Indomorphan Pseudo‐Natural Product Inhibitors of Glucose Transporters GLUT‐1 and ‐3” (Angewandte Chemie (International Ed. in English), 2019)

Key:
Experiment in all cases: cells
NCIH292 = tested on: NCIH292; parameters: Cell growth inhibition, sulforhodamine B total protein staining; conditions: Homo sapiens, NCI-H292; 72 h growth; read-out: Cell growth inhibition IC50/µM
Method in brief: (§1)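 72 h exposure of a 94-cell-line panel to Glupin; growth measured by sulforhodamine B total-protein staining after TCA fixation (10% adherent, 50% suspension/semi-adherent, 1 h at 4 °C). IC50 derived from growth inhibition.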

JIMT1 = tested on: JIMT1; parameters: Cell growth inhibition, sulforhodamine B total protein staining; conditions: Homo sapiens, JIMT-1; 72 h growth; read-out: Cell growth inhibition IC50/µM
Method in brief: as §1

CASKI = tested on: CASKI; parameters: Cell growth inhibition, sulforhodamine B total protein staining; conditions: Homo sapiens, Ca-Ski; 72 h growth; read-out: Cell growth inhibition IC50/µM
Method in brief: as §1

CHO [1] = tested on: T1, CHO; parameters: 2DG uptake in transfected CHO cells, resazurin/diaphorase fluorescence; conditions: Cricetulus griseus, 0.5 h
T1 construct: transiently transfected with plasmid
Description: Transient overexpression of GLUT-1-4 in CHO cells and 2DG assay[7] 1x10^6 CHO cells were seeded 10 cm cell culture plates. After overnight incubation, cells were transfected with the different using Lipofectamine 3000 according to the supplier's instructions. Briefly, DNA-lipid SUPPORTING INFORMATION 264 complexes (100 µg plasmid DNA, DNA:lipid ratio 1:2) were prepared in OptiMEM and then added to the cells. In the case of GLUT-4-transfected cells, Insulin (100 µg/mL) was added to the transfection medium. After incubation for 48 h cells were either reseeded (40,000 cell/well) in 96-well plates for monitoring glucose uptake or cells were directly lysed and protein expression was subsequently analysed by means of immunoblotting. In the case of GLUT-4 transfected cells, Insulin (100 µg/mL) was added to the culture medium medium. The 2DG assay was performed as described above (low throughput resazurin-based assay). In the case of GLUT-4 transfected cells, Insulin (100 µg/mL) was added to the buffer. Resazurin-based 2DG uptake assay (low throughput) The 2DG uptake assay was performed by the Yamamoto et al. procedure.[6] 40000 cells/well were seeded in black CellBIND 96-well plates with clear bottom (Corning) and allowed to attach overnight. Cells were washed three times with KRB buffer (20 mM Hepes, 5 mM KH2PO4, 1 mM MgCl2, 1 mM CaCl2, 136 mM NaCl, 4.7 mM KCl, pH 7.4) containing 0.1% BSA and then incubated with the compounds or vehicle control and 1 mM 2DG for 30 min as described earlier. After washing three times with KRB buffer, the plates were sealed with adhesive aluminum foil and cells were lysed with 60 µL 1% CHAPS in 0.06 M HCl. Subsequently, plates were heated using microplate heater for 15 min at 65°C. After cooling down to room temperature, 20 µL 0.5 M Tris were added to neutralize the acid, before 80 µL of detection enzyme mixture were added. The detection enzyme solution contained 25 µM resazurin sodium salt (Acros), 6 U/mL glucose-6-phosphate dehydrogenase (G8404; Sigma Aldrich), 0.2 U/mL diaphorase from Chlostridium kluyveri (D5540; Sigma Aldrich) and 0.1mM NADP+ (Applichem) in 0.125 mM Tris, pH 8.4 with 0.1% BSA. After incubation for 2 h at room temperature, fluorescence intensity was measured at ex/em 530/590 nm using a Tecan M200 plate reader. Data were normalized to the respective DMSO

CHO [2] = tested on: CHO; parameters: 2-deoxyglucose uptake inhibition, resazurin/diaphorase, mock-transfected CHO cells; conditions: Cricetulus griseus, 0.5 h, empty vector
Description: Resazurin-based 2DG uptake assay (low throughput) The 2DG uptake assay was performed by the Yamamoto et al. procedure.[6] 40000 cells/well were seeded in black CellBIND 96-well plates with clear bottom (Corning) and allowed to attach overnight. Cells were washed three times with KRB buffer (20 mM Hepes, 5 mM KH2PO4, 1 mM MgCl2, 1 mM CaCl2, 136 mM NaCl, 4.7 mM KCl, pH 7.4) containing 0.1% BSA and then incubated with the compounds or vehicle control and 1 mM 2DG for 30 min as described earlier. After washing three times with KRB buffer, the plates were sealed with adhesive aluminum foil and cells were lysed with 60 µL 1% CHAPS in 0.06 M HCl. Subsequently, plates were heated using microplate heater for 15 min at 65°C. After cooling down to room temperature, 20 µL 0.5 M Tris were added to neutralize the acid, before 80 µL of detection enzyme mixture were added. The detection enzyme solution contained 25 µM resazurin sodium salt (Acros), 6 U/mL glucose-6-phosphate dehydrogenase (G8404; Sigma Aldrich), 0.2 U/mL diaphorase from Chlostridium kluyveri (D5540; Sigma Aldrich) and 0.1mM NADP+ (Applichem) in 0.125 mM Tris, pH 8.4 with 0.1% BSA. After incubation for 2 h at room temperature, fluorescence intensity was measured at ex/em 530/590 nm using a Tecan M200 plate reader. Data were normalized to the respective DMSO Transient overexpression of GLUT-1-4 in CHO cells and 2DG assay[7] […]

SMILES: CCOC(=O)Cn1c2c(c3ccccc31)C[C@@H]1C[C@H]2C(OC)CN1C(=O)c1cccnc1SC (single isomer, unassigned; (+)) [(+)-5a, Glupin]
- IC50 (NCIH292): > 30 µM
- IC50 (JIMT1): 0.113 µM
- IC50 (CASKI): 0.433 µM
- IC50 (CHO [1]; pCMV-SPORT6-GLUT3): 68 ± 7.2 nM
- IC50 (CHO [1]; pTCN-GLUT1): 162 ± 14 nM
- IC50 (CHO [1]; pTCN-GLUT2): 19.7 ± 2.4 nM
- IC50 (CHO [1]; pTCN-GLUT4): 18.9 ± 3.2 nM
- IC50 (CHO [2]; pCMV-SPORT6, 2DG uptake): 19.1 ± 2.9 nM
- IC50 (CHO [2]; pTCN, 2DG uptake): 19.2 ± 2.1 nM
